Experimental data from patent publication US10590132B2, “Selective estrogen receptor down-regulators” (AstraZeneca AB, priority 2017, dated 2020).

Assay: Human plasma protein binding (equilibrium dialysis)
Type: in vitro ADME
Details: dialysis 18 hours

Row | Compound | Human plasma protein binding (% free)
1 | COc1ccc(OCCNCCCF)c(F)c1[C@@H]1c2[nH]c3ccccc3c2C[C@@H](C)N1CC1(F)COC1 [Example 84, 3-fluoro-N-(2-(2-fluoro-3-((1R,3R)-2-((3-fluorooxetan-3-yl)methyl)-3-methyl-2,3,4,9-tetrahydro-1H-pyrido[3,4-b]indol-1-yl)-4-methoxyphenoxy)ethyl)propan-1-amine] | 6 % free
2 | Cc1c(OCCN(C)CCCF)ncc(F)c1[C@@H]1c2[nH]c3ccccc3c2C[C@@H](C)N1C(C)CC(=O)O (single isomer, unassigned) [Example 158] | 21 % free
3 | C[C@@H]1Cc2c([nH]c3ccccc23)[C@@H](c2c(F)ccc(OCCNCCCF)c2F)N1CC(F)F [Example 51, N-(2-(3-((1R,3R)-2-(2,2-difluoroethyl)-3-methyl-2,3,4,9-tetrahydro-1H-pyrido[3,4-b]indol-1-yl)-2,4-difluorophenoxy)ethyl)-3-fluoropropan-1-amine] | 2.3 % free
4 | C[C@@H]1Cc2c([nH]c3ccccc23)[C@@H](c2c(F)cnc(OCCNCCCF)c2F)N1CC1(F)CC1 [Example 108, N-(2-((3,5-difluoro-4-((1R,3R)-2-((1-fluorocyclopropyl)methyl)-3-methyl-2,3,4,9-tetrahydro-1H-pyrido[3,4-b]indol-1-yl)pyridin-2-yl)oxy)ethyl)-3-fluoropropan-1-amine] | 2.3 % free
5 | COc1ccc(OCCNCCCF)c(F)c1[C@@H]1c2[nH]c3ccc(F)cc3c2C[C@@H](C)N1CC(F)(F)CO [Example 86, 2,2-difluoro-3-((1R,3R)-6-fluoro-1-(2-fluoro-3-(2-((3-fluoropropyl)amino)ethoxy)-6-methoxyphenyl)-3-methyl-1,3,4,9-tetrahydro-2H-pyrido[3,4-b]indol-2-yl)propan-1-ol] | 2.6 % free
6 | COc1ccc(OCCNCCCF)c(F)c1[C@@H]1c2[nH]c3ccccc3c2C[C@@H](C)N1CC1(F)CC1 [Example 83, 3-fluoro-N-(2-(2-fluoro-3-((1R,3R)-2-((1-fluorocyclopropyl)methyl)-3-methyl-2,3,4,9-tetrahydro-1H-pyrido[3,4-b]indol-1-yl)-4-methoxyphenoxy)ethyl)propan-1-amine] | 2.5 % free
7 | Cc1c(OCCN(C)CCCF)ncc(F)c1[C@@H]1c2[nH]c3ccccc3c2C[C@@H](C)N1C(C)CC(=O)O (single isomer, unassigned) [Example 159] | 13 % free
8 | CC(CN1[C@H](c2c(Cl)ccc(OCCNCCCF)c2Cl)c2[nH]c3ccc(F)cc3c2C[C@H]1C)C(=O)O (single isomer, unassigned) [Example 129] | 23 % free
9 | C[C@@H]1Cc2c([nH]c3ccccc23)[C@@H](c2c(Cl)ccc(OCCNCCCF)c2Cl)N1C[C@H](C)C(=O)O [Example 128, (S)-3-((1R,3R)-1-(2,6-dichloro-3-(2-((3-fluoropropyl)amino)ethoxy)phenyl)-3-methyl-1,3,4,9-tetrahydro-2H-pyrido[3,4-b]indol-2-yl)-2-methylpropanoic acid] | 15 % free
10 | Cc1c(OCCN(C)CCCF)ccc(F)c1[C@@H]1c2[nH]c3ccccc3c2C[C@@H](C(F)(F)F)N1C[C@H](C)C(=O)O [Example 149, (S)-3-((1R,3S)-1-(6-fluoro-3-(2-((3-fluoropropyl)(methyl)amino)ethoxy)-2-methylphenyl)-3-(trifluoromethyl)-1,3,4,9-tetrahydro-2H-pyrido[3,4-b]indol-2-yl)-2-methylpropanoic acid] | 5.3 % free
11 | Cc1c(OCCN(C)CCCF)ccc(F)c1[C@@H]1c2[nH]c3ccccc3c2C[C@@H](C)N1CCC(=O)O [Example 163, 3-((1R,3R)-1-(6-fluoro-3-(2-((3-fluoropropyl)(methyl)amino)ethoxy)-2-methylphenyl)-3-methyl-1,3,4,9-tetrahydro-2H-pyrido[3,4-b]indol-2-yl)propanoic Acid] | 49 % free
12 | COc1ccc(OCCNCCCF)c(F)c1[C@@H]1c2[nH]c3ccccc3c2C[C@@H](C)N1CC(F)F [Example 82, N-(2-(3-((1R,3R)-2-(2,2-difluoroethyl)-3-methyl-2,3,4,9-tetrahydro-1H-pyrido[3,4-b]indol-1-yl)-2-fluoro-4-methoxyphenoxy)ethyl)-3-fluoropropan-1-amine] | 1.9 % free
13 | Cc1c(OCCNCCCF)ncnc1[C@@H]1c2[nH]c3ccccc3c2C[C@@H](C)N1CC(F)(F)CO [Example 115, 2,2-difluoro-3-((1S,3R)-1-(6-(2-((3-fluoropropyl)amino)ethoxy)-5-methylpyrimidin-4-yl)-3-methyl-1,3,4,9-tetrahydro-2H-pyrido[3,4-b]indol-2-yl)propan-1-ol] | 11 % free
14 | C[C@@H]1Cc2c([nH]c3ccccc23)[C@@H](c2c(F)ccc(OCCNCCCF)c2F)N1CC1(F)COC1 [Example 13, N-(2-(2,4-difluoro-3-((1R,3R)-2-((3-fluorooxetan-3-yl)methyl)-3-methyl-2,3,4,9-tetrahydro-1H-pyrido[3,4-b]indol-1-yl)phenoxy)ethyl)-3-fluoropropan-1-amine] | 3.5 % free

Continued, values first:

Row | Human plasma protein binding (% free) | Compound
15 | 0.93 % free | COc1cc(F)c(NCCNCCCF)cc1[C@@H]1c2[nH]c3ccccc3c2C[C@@H](C)N1CC(F)(F)F [Example 91, N1-(2-fluoro-4-methoxy-5-((1R,3R)-3-methyl-2-(2,2,2-trifluoroethyl)-2,3,4,9-tetrahydro-1H-pyrido[3,4-b]indol-1-yl)phenyl)-N2-(3-fluoropropyl)ethane-1,2-diamine]
16 | 80 % free | COc1ccc(OCCNCCCF)cc1[C@@H]1c2[nH]c3ccccc3c2C[C@@H](C)N1C[C@H](C)C(=O)O [Example 53, (S)-3-((1R,3R)-1-(5-(2-((3-fluoropropyl)amino)ethoxy)-2-methoxyphenyl)-3-methyl-1,3,4,9-tetrahydro-2H-pyrido[3,4-b]indol-2-yl)-2-methylpropanoic acid]
17 | <0.4 % free | Cc1ccc(OCCNCCCF)c(C)c1[C@@H]1c2[nH]c3ccccc3c2C[C@@H](C)N1CC(F)(F)F [Example 79, N-(2-(2,4-dimethyl-3-((1R,3R)-3-methyl-2-(2,2,2-trifluoroethyl)-2,3,4,9-tetrahydro-1H-pyrido[3,4-b]indol-1-yl)phenoxy)ethyl)-3-fluoropropan-1-amine]
18 | 2.3 % free | C[C@@H]1Cc2c([nH]c3ccccc23)[C@@H](c2cc(OCCNCCCF)ccc2Cl)N1CC(F)(F)CO [Example 44, 3-((1R,3R)-1-(2-chloro-5-(2-((3-fluoropropyl)amino)ethoxy)phenyl)-3-methyl-1,3,4,9-tetrahydro-2H-pyrido[3,4-b]indol-2-yl)-2,2-difluoropropan-1-ol]
19 | 2.9 % free | COc1ccc(OCCNCCCF)c(F)c1[C@@H]1c2[nH]c3ccccc3c2C[C@@H](C)N1CC(F)(F)CO [Example 81, 2,2-difluoro-3-((1R,3R)-1-(2-fluoro-3-(2-((3-fluoropropyl)amino)ethoxy)-6-methoxyphenyl)-3-methyl-1,3,4,9-tetrahydro-2H-pyrido[3,4-b]indol-2-yl)propan-1-ol]
20 | 0.21 % free | C[C@@H]1Cc2c([nH]c3ccccc23)[C@@H](c2c(Cl)ccc(OCCNCCCF)c2F)N1CC(F)(F)F [Example 78, N-(2-(4-chloro-2-fluoro-3-((1R,3R)-3-methyl-2-(2,2,2-trifluoroethyl)-2,3,4,9-tetrahydro-1H-pyrido[3,4-b]indol-1-yl)phenoxy)ethyl)-3-fluoropropan-1-amine]
21 | 0.89 % free | COc1ccc(NCCNCCCF)cc1[C@@H]1c2[nH]c3ccccc3c2C[C@@H](C)N1CC(F)(F)F [Example 40, N1-(3-fluoropropyl)-N2-(4-methoxy-3-((1R,3R)-3-methyl-2-(2,2,2-trifluoroethyl)-2,3,4,9-tetrahydro-1H-pyrido[3,4-b]indol-1-yl)phenyl)ethane-1,2-diamine]
22 | 5.4 % free | C[C@@H]1Cc2c([nH]c3ccccc23)[C@@H](c2cc(OCCNCCCF)ccn2)N1CC(F)(F)F [Example 35, 3-fluoro-N-(2-((2-((1S,3R)-3-methyl-2-(2,2,2-trifluoroethyl)-2,3,4,9-tetrahydro-1H-pyrido[3,4-b]indol-1-yl)pyridin-4-yl)oxy)ethyl)propan-1-amine]
23 | 0.72 % free | C[C@@H]1Cc2c([nH]c3ccccc23)[C@@H](c2cc(OCCNCCCF)cc(F)c2F)N1CC(F)(F)F [Example 30, N-(2-(3,4-difluoro-5-((1R,3R)-3-methyl-2-(2,2,2-trifluoroethyl)-2,3,4,9-tetrahydro-1H-pyrido[3,4-b]indol-1-yl)phenoxy)ethyl)-3-fluoropropan-1-amine]
24 | 0.34 % free | C[C@@H]1Cc2c([nH]c3ccccc23)[C@@H](c2nccc(OCCNCCCF)c2Cl)N1CC(F)(F)F [Example 93, N-(2-((3-chloro-2-((1S,3R)-3-methyl-2-(2,2,2-trifluoroethyl)-2,3,4,9-tetrahydro-1H-pyrido[3,4-b]indol-1-yl)pyridin-4-yl)oxy)ethyl)-3-fluoropropan-1-amine]
25 | 2.8 % free | COc1ccc(NCCNCCCF)nc1[C@@H]1c2[nH]c3ccccc3c2C[C@@H](C)N1CC(F)(F)F [Example 43, N1-(3-fluoropropyl)-N2-(5-methoxy-6-((1S,3R)-3-methyl-2-(2,2,2-trifluoroethyl)-2,3,4,9-tetrahydro-1H-pyrido[3,4-b]indol-1-yl)pyridin-2-yl)ethane-1,2-diamine]
26 | <0.1 % free | COc1ccc(OCCNCCC(F)(F)F)cc1[C@@H]1c2[nH]c3ccccc3c2C[C@@H](C)N1CC(F)(F)F [Example 72, 3,3,3-trifluoro-N-(2-(4-methoxy-3-((1R,3R)-3-methyl-2-(2,2,2-trifluoroethyl)-2,3,4,9-tetrahydro-1H-pyrido[3,4-b]indol-1-yl)phenoxy)ethyl)propan-1-amine]
27 | 1 % free | Cc1ccc(OCCNCCCF)nc1[C@@H]1c2[nH]c3ccccc3c2C[C@@H](C)N1CC(F)(F)F [Example 105, 3-fluoro-N-(2-((5-methyl-6-((1S,3R)-3-methyl-2-(2,2,2-trifluoroethyl)-2,3,4,9-tetrahydro-1H-pyrido[3,4-b]indol-1-yl)pyridin-2-yl)oxy)ethyl)propan-1-amine]
